Biological target: T1, Tyrosinase (Mus musculus, UniProt P11344)
T1 sequence (P11344 whole entry): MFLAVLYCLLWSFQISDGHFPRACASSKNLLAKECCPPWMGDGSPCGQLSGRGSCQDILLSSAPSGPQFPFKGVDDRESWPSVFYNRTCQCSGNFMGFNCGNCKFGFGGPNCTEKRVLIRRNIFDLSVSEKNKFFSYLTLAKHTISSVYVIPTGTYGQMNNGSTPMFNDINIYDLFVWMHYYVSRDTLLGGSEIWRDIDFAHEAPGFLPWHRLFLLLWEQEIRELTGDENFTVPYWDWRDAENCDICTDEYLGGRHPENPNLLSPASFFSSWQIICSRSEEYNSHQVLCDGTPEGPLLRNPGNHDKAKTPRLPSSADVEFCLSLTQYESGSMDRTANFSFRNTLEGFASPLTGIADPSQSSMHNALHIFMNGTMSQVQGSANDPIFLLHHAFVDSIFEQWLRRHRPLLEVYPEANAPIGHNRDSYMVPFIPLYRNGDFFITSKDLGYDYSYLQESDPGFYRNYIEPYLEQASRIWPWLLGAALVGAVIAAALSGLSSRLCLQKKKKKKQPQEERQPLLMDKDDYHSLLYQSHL
Experiment: Tyrosinase Activity
Settings: pH 6.8
Procedure: The reaction mixture contained 50 mM phosphate buffer, pH 6.8, 0.05% L-DOPA and the supernatant (tyrosinase). After incubation in the absence or presence of various stilbene derivatives (with varying concentrations ranging from 1 µg/mL to 100 µg/mL) at 37 °C for 20 min, dopachrome was monitored by measuring absorbanceat wavelength 492 nm by using a Molecular Devices microplate reader.

Point of comparison: Oc1ccc(/C=C/c2cc(O)cc(O)c2)cc1 [5-[(E)-2-(4-hydroxyphenyl)ethenyl]benzene-1,3-diol], IC50 10.8 µM. Against it:
- COc1ccc(/C=C\c2cc(OC)c(OC)c(OC)c2)cc1 [1,2,3-Trimethoxy-5-[(Z)-2-(4-methoxy-phenyl)-vinyl]-benzene] — higher, > 500 µM
- N#C/C(=C/c1ccc(O)cc1)c1ccc(O)cc1 [(E)-2,3-bis(4-Hydroxyphenyl)acrylonitrile (21)] — 2.1-fold lower, 5.06 µM
- N#C/C(=C/c1cccnc1)c1ccc(O)cc1 [(E)-2-(4-Hydroxyphenyl)-3-(pyridin-3-yl)acrylonitrile (22)] — 25-fold higher, 270 µM
- COc1ccc(/C=C(/C=O)c2ccccc2)cc1 [(E)-3-(4-Methoxyphenyl)-2-phenylpropenal (20)] — 26-fold higher, 276 µM
- COC(=O)/C(=C/c1ccc(O)c(OC)c1)c1ccc(OC)cc1 [(E)-Methyl-3-(4-hydroxy-3-methoxyphenyl)-2-(4-methoxyphenyl)acrylate (19)] — higher, > 500 µM
- Fc1c(F)c(F)c(/C=C\c2ccccc2)c(F)c1F [Trans-1,2,3,4,5-Pentafluoro-6-styryl-benzene (14)] — higher, > 500 µM
- C(=C\c1ccccc1)/c1ccccc1 [Trans-1,2-Diphenylethene (1)] — higher, > 500 µM
- Fc1cc(F)cc(/C=C\c2ccccc2)c1 [Trans-1,3-Difluoro-5-styrylbenzene (12)] — 36-fold higher, 394 µM
- Brc1ccc(/C=C\c2ccccc2)cc1 [Trans-1-Bromo-4-styrylbenzene (4)] — 26-fold higher, 277 µM
- Clc1ccc(/C=C\c2ccccc2)cc1 [Trans-1-Chloro-4-styrylbenzene (3)] — 30-fold higher, 320 µM
- Fc1ccc(/C=C\c2ccccc2)cc1 [Trans-1-Fluoro-4-styryl-benzene (2)] — 7.4-fold higher, 79.4 µM
- COc1ccc(/C=C\c2ccccc2)cc1 [Trans-1-Methoxy-4-styryl-benzene (9)] — 40-fold higher, 433 µM
- O=[N+]([O-])c1ccc(/C=C\c2ccccc2)cc1 [Trans-1-Nitro-4-styrylbenzene (5)] — 33-fold higher, 361 µM
- COc1ccc(/C=C\c2ccc(F)cc2)cc1 [Trans-1-fluoro-4-(4-methoxystyryl)benzene (10)] — 4.6-fold higher, 50 µM
- COc1ccc(/C=C\c2ccccc2)cc1Br [Trans-2-Bromo-1-methoxy-4-styryl-benzene (11)] — 5.2-fold higher, 56.2 µM
- Oc1ccc(/C=C\c2ccccc2)cc1 [Trans-4-Styryl-phenol (8)] — 1.6-fold higher, 17.4 µM
- N#Cc1ccc(/C=C\c2ccccc2)cc1 [Trans-4-Styrylbenzonitrile (6)] — 4.6-fold higher, 50 µM
- C(=C/c1c2ccccc2cc2ccccc12)/c1ccccc1 [Trans-9-Styryl-anthracene (15)] — 15-fold higher, 166 µM
- CC(=O)Oc1ccc(C=Cc2ccccc2)cc1 [Trans-Acetic acid 4-styryl-phenyl ester (7)] — higher, > 500 µM
